Tests used:
Assay type in all cases: ADME, organism-based; call rule not given here
Cerebellum [1] = assay: Biodistribution in Sprague-Dawley rat cerebellum at 37 MBq, iv measured 5 mins post injection; settings: in vivo
Rattus norvegicus [2] = assay: Biodistribution in Sprague-Dawley rat cortex (rest) at 37 MBq, iv measured 30 mins post injection; settings: in vivo, 0.5 h
Brain [3] = assay: Biodistribution in Sprague-Dawley rat rest of brain at 37 MBq, iv measured 30 mins post injection; settings: in vivo, 0.5 h
[4] = Metabolic stability of the compound in Sprague-Dawley rat brain assessed as compound remaining at 37 MBq, iv measured after 15 mins; settings: read-out: Stability
Brain [5] = assay: Biodistribution in Sprague-Dawley rat rest of brain pretreated with unlabeled compound at 10 mg/kg, ip administered 30 mins before labeled compound treatment at 37 MBq, iv measured 15 mins post injection (0.20 +/- 0.01 %ID/g); set-up: dose 10 mg/kg; settings: in vivo, 0.25 h
Striatum [6] = assay: Biodistribution in Sprague-Dawley rat striatum pretreated with unlabeled compound at 10 mg/kg, ip administered 30 mins before labeled compound treatment at 37 MBq, iv measured 15 mins post injection (reference value: 0.13 +/- 0.22 %ID/g); set-up: dose 10 mg/kg, route intravenous; settings: in vivo, 0.25 h
[7] = Biodistribution in Sprague-Dawley rat hippocampus pretreated with unlabeled compound at 10 mg/kg, ip administered 30 mins before labeled compound treatment at 37 MBq, iv measured 15 mins post injection (reference value: 0.22 +/- 0.22 %ID/g); set-up: dose 10 mg/kg; settings: read-out: Drug uptake
Rattus norvegicus [8] = assay: Biodistribution in Sprague-Dawley rat cortex (front) at 37 MBq, iv measured 60 mins post injection; settings: in vivo, 1 h
Rattus norvegicus [9] = assay: Biodistribution in Sprague-Dawley rat cortex (rest) at 37 MBq, iv measured 15 mins post injection; settings: in vivo, 0.25 h
Striatum [10] = assay: Biodistribution in Sprague-Dawley rat striatum pretreated with unlabeled compound at 0.1 mg/kg, ip administered 30 mins before labeled compound treatment at 37 MBq, iv measured 15 mins post injection (reference value: 0.13 +/- 0.22 %ID/g); set-up: dose 0.1 mg/kg, route intravenous; settings: in vivo, 0.25 h
Plasma = assay: Drug metabolism in Sprague-Dawley rat plasma at 37 MBq, iv measured after 5 mins; settings: in vivo
Striatum [11] = assay: Biodistribution in Sprague-Dawley rat striatum at 37 MBq, iv measured 5 mins post injection; settings: in vivo
Brain [12] = assay: Biodistribution in Sprague-Dawley rat rest of brain at 37 MBq, iv measured 5 mins post injection; settings: in vivo
Rattus norvegicus [13] = assay: Biodistribution in Sprague-Dawley rat cortex (front) at 37 MBq, iv measured 15 mins post injection; settings: in vivo, 0.25 h
Rattus norvegicus [14] = assay: Biodistribution in Sprague-Dawley rat cortex (front) pretreated with unlabeled compound at 10 mg/kg, ip administered 30 mins before labeled compound treatment at 37 MBq, iv measured 15 mins post infection (reference value: 0.42 +/- 0.04%ID/g); set-up: dose 10 mg/kg; settings: in vivo, 0.25 h
Rattus norvegicus [15] = assay: Biodistribution in Sprague-Dawley rat cortex (front) at 37 MBq, iv measured 30 mins post injection; settings: in vivo, 0.5 h
Brain [16] = assay: Biodistribution in Sprague-Dawley rat rest of brain pretreated with unlabeled compound at 5 mg/kg, ip administered 30 mins before labeled compound treatment at 37 MBq, iv measured 15 mins post injection (0.20 +/- 0.01 %ID/g); set-up: dose 5 mg/kg, route intravenous; settings: in vivo, 0.25 h
Blood [17] = assay: Biodistribution in Sprague-Dawley rat blood at 37 MBq, iv measured 60 mins post injection; settings: in vivo, 1 h
Blood [18] = assay: Biodistribution in Sprague-Dawley rat blood at 37 MBq, iv measured 30 mins post injection; settings: in vivo, 0.5 h
Blood [19] = assay: Biodistribution in Sprague-Dawley rat blood at 37 MBq, iv measured 5 mins post injection; settings: in vivo
[20] = Metabolic stability of the compound in Sprague-Dawley rat plasma assessed as compound remaining at 37 MBq, iv measured after 15 mins; settings: read-out: Stability
Brain [21] = assay: Biodistribution in Sprague-Dawley rat rest of brain at 37 MBq, iv measured 15 mins post injection; settings: in vivo, 0.25 h
[22] = Biodistribution in Sprague-Dawley rat blood pretreated with unlabeled compound at 10 mg/kg, ip administered 30 mins before labeled compound treatment at 37 MBq, iv measured 15 mins post injection (0.11 +/- 0.01 %ID/g); set-up: dose 10 mg/kg; settings: read-out: Drug uptake
Rattus norvegicus [23] = assay: Biodistribution in Sprague-Dawley rat cortex (front) pretreated with unlabeled compound at 0.1 mg/kg, ip administered 30 mins before labeled compound treatment at 37 MBq, iv measured 15 mins post infection (reference value: 0.42 +/- 0.04%ID/g); set-up: dose 0.1 mg/kg; settings: in vivo, 0.25 h
Rattus norvegicus [24] = assay: Biodistribution in Sprague-Dawley rat cortex (rest) pretreated with unlabeled compound at 10 mg/kg, ip administered 30 mins before labeled compound treatment at 37 MBq, iv measured 15 mins post injection (0.36 +/- 0.02 %ID/g); set-up: dose 10 mg/kg; settings: in vivo, 0.25 h
Striatum [25] = assay: Biodistribution in Sprague-Dawley rat striatum at 37 MBq, iv measured 60 mins post injection; settings: in vivo, 1 h
[26] = Biodistribution in Sprague-Dawley rat rest of brain pretreated with unlabeled compound at 0.1 mg/kg, ip administered 30 mins before labeled compound treatment at 37 MBq, iv measured 15 mins post injection (0.20 +/- 0.01 %ID/g); set-up: dose 0.1 mg/kg; settings: read-out: Drug uptake
Rattus norvegicus [27] = assay: Biodistribution in Sprague-Dawley rat cortex (front) pretreated with unlabeled compound at 5 mg/kg, ip administered 30 mins before labeled compound treatment at 37 MBq, iv measured 15 mins post infection (reference value: 0.42 +/- 0.04%ID/g); set-up: dose 5 mg/kg; settings: in vivo, 0.25 h
Rattus norvegicus [28] = assay: Biodistribution in Sprague-Dawley rat cortex (front) at 37 MBq, iv measured 5 mins post injection; settings: in vivo
Blood [29] = assay: Biodistribution in Sprague-Dawley rat blood pretreated with unlabeled compound at 0.1 mg/kg, ip administered 30 mins before labeled compound treatment at 37 MBq, iv measured 15 mins post injection (0.11 +/- 0.01 %ID/g); set-up: dose 0.1 mg/kg; settings: in vivo, 0.25 h
[30] = Biodistribution in Sprague-Dawley rat cerebellum pretreated with unlabeled compound at 10 mg/kg, ip administered 30 mins before labeled compound treatment at 37 MBq, iv measured 15 mins post injection (reference value: 0.26 %ID/g); set-up: dose 10 mg/kg; settings: read-out: Drug uptake
[31] = Biodistribution in Sprague-Dawley rat hippocampus pretreated with unlabeled compound at 5 mg/kg, ip administered 30 mins before labeled compound treatment at 37 MBq, iv measured 15 mins post injection (reference value: 0.22 +/- 0.22 %ID/g); set-up: dose 5 mg/kg; settings: read-out: Drug uptake
Rattus norvegicus [32] = assay: Biodistribution in Sprague-Dawley rat cortex (rest) at 37 MBq, iv measured 5 mins post injection; settings: in vivo
[33] = Biodistribution in Sprague-Dawley rat striatum pretreated with unlabeled compound at 5 mg/kg, ip administered 30 mins before labeled compound treatment at 37 MBq, iv measured 15 mins post injection (reference value: 0.13 +/- 0.22 %ID/g); set-up: dose 5 mg/kg, route intravenous; settings: read-out: Drug uptake
Striatum [34] = assay: Biodistribution in Sprague-Dawley rat striatum at 37 MBq, iv measured 30 mins post injection; settings: in vivo, 0.5 h
Hippocampus [35] = assay: Biodistribution in Sprague-Dawley rat hippocampus at 37 MBq, iv measured 60 mins post injection; settings: in vivo, 1 h
Cerebellum [36] = assay: Biodistribution in Sprague-Dawley rat cerebellum at 37 MBq, iv measured 15 mins post injection; settings: in vivo, 0.25 h
Striatum [37] = assay: Biodistribution in Sprague-Dawley rat striatum at 37 MBq, iv measured 15 mins post injection; settings: in vivo, 0.25 h
[38] = Biodistribution in Sprague-Dawley rat cerebellum pretreated with unlabeled compound at 5 mg/kg, ip administered 30 mins before labeled compound treatment at 37 MBq, iv measured 15 mins post injection (reference value: 0.26 %ID/g); set-up: dose 5 mg/kg; settings: read-out: Drug uptake
Blood [39] = assay: Biodistribution in Sprague-Dawley rat blood pretreated with unlabeled compound at 5 mg/kg, ip administered 30 mins before labeled compound treatment at 37 MBq, iv measured 15 mins post injection (0.11 +/- 0.01 %ID/g); set-up: dose 5 mg/kg; settings: in vivo, 0.25 h
Hippocampus [40] = assay: Biodistribution in Sprague-Dawley rat hippocampus at 37 MBq, iv measured 5 mins post injection; settings: in vivo
Blood [41] = assay: Biodistribution in Sprague-Dawley rat blood at 37 MBq, iv measured 15 mins post injection; settings: in vivo, 0.25 h
Brain [42] = assay: Biodistribution in Sprague-Dawley rat rest of brain at 37 MBq, iv measured 60 mins post injection; settings: in vivo, 1 h
Hippocampus [43] = assay: Biodistribution in Sprague-Dawley rat hippocampus at 37 MBq, iv measured 15 mins post injection; settings: in vivo, 0.25 h
Cerebellum [44] = assay: Biodistribution in Sprague-Dawley rat cerebellum at 37 MBq, iv measured 30 mins post injection; settings: in vivo, 0.5 h
[45] = Biodistribution in Sprague-Dawley rat hippocampus pretreated with unlabeled compound at 0.1 mg/kg, ip administered 30 mins before labeled compound treatment at 37 MBq, iv measured 15 mins post injection (reference value: 0.22 +/- 0.22 %ID/g); set-up: dose 0.1 mg/kg; settings: read-out: Drug uptake
Cerebellum [46] = assay: Biodistribution in Sprague-Dawley rat cerebellum at 37 MBq, iv measured 60 mins post injection; settings: in vivo, 1 h
[47] = Biodistribution in Sprague-Dawley rat cerebellum pretreated with unlabeled compound at 0.1 mg/kg, ip administered 30 mins before labeled compound treatment at 37 MBq, iv measured 15 mins post injection (reference value: 0.26 %ID/g); set-up: dose 0.1 mg/kg; settings: read-out: Drug uptake
[48] = Biodistribution in Sprague-Dawley rat cortex (rest) pretreated with unlabeled compound at 0.1 mg/kg, ip administered 30 mins before labeled compound treatment at 37 MBq, iv measured 15 mins post injection (0.36 +/- 0.02 %ID/g); set-up: dose 0.1 mg/kg; settings: read-out: Drug uptake
Hippocampus [49] = assay: Biodistribution in Sprague-Dawley rat hippocampus at 37 MBq, iv measured 30 mins post injection; settings: in vivo, 0.5 h
Rattus norvegicus [50] = assay: Biodistribution in Sprague-Dawley rat cortex (rest) pretreated with unlabeled compound at 5 mg/kg, ip administered 30 mins before labeled compound treatment at 37 MBq, iv measured 15 mins post injection (0.36 +/- 0.02 %ID/g); set-up: dose 5 mg/kg; settings: in vivo, 0.25 h
Rattus norvegicus [51] = assay: Biodistribution in Sprague-Dawley rat cortex (rest) at 37 MBq, iv measured 60 mins post injection; settings: in vivo, 1 h

[11CH3]Oc1ncccc1-c1cccc2c(N)c3c(nc12)CN(C1CCC1)C3=O
Drug uptake (Cerebellum [1]): 0.36 % ID/g
Drug uptake (Rattus norvegicus [2]): 0.37 % ID/g
Drug uptake (Brain [3]): 0.22 % ID/g
remaining at 0.25 h [4]: > 99%
Drug uptake (Brain [5]): 0.09 % ID/g
Drug uptake (Striatum [6]): 0.08 % ID/g
tissue uptake at 0.25 h [7]: 0.08 %ID/g
Drug uptake (Rattus norvegicus [8]): 0.21 % ID/g
Drug uptake (Rattus norvegicus [9]): 0.46 % ID/g
Drug uptake (Striatum [10]): 0.14 % ID/g
Drug metabolism (Plasma): Active
Drug uptake (Striatum [11]): 0.26 % ID/g
Drug uptake (Brain [12]): 0.25 % ID/g
Drug uptake (Rattus norvegicus [13]): 0.53 % ID/g
Drug uptake (Rattus norvegicus [14]): 0.13 % ID/g
Drug uptake (Rattus norvegicus [15]): 0.44 % ID/g
Drug uptake (Brain [16]): 0.09 % ID/g
Drug uptake (Blood [17]): 0.08 % ID/g
Drug uptake (Blood [18]): 0.11 % ID/g
Drug uptake (Blood [19]): 0.14 % ID/g
remaining at 0.25 h [20]: 71%
Drug uptake (Brain [21]): 0.27 % ID/g
tissue uptake at 0.25 h [22]: 0.12 %ID/g
Drug uptake (Rattus norvegicus [23]): 0.36 % ID/g
Drug uptake (Rattus norvegicus [24]): 0.11 % ID/g
Drug uptake (Striatum [25]): 0.06 % ID/g
tissue uptake at 0.25 h [26]: 0.16 %ID/g
Drug uptake (Rattus norvegicus [27]): 0.16 % ID/g
Drug uptake (Rattus norvegicus [28]): 0.47 % ID/g
Drug uptake (Blood [29]): 0.11 % ID/g
tissue uptake at 0.25 h [30]: 0.09 %ID/g
tissue uptake at 0.25 h [31]: 0.11 %ID/g
Drug uptake (Rattus norvegicus [32]): 0.45 % ID/g
tissue uptake at 0.25 h [33]: 0.1 %ID/g
Drug uptake (Striatum [34]): 0.15 % ID/g
Drug uptake (Hippocampus [35]): 0.09 % ID/g
Drug uptake (Cerebellum [36]): 0.34 % ID/g
Drug uptake (Striatum [37]): 0.21 % ID/g
tissue uptake at 0.25 h [38]: 0.12 %ID/g
Drug uptake (Blood [39]): 0.12 % ID/g
Drug uptake (Hippocampus [40]): 0.2 % ID/g
Drug uptake (Blood [41]): 0.15 % ID/g
Drug uptake (Brain [42]): 0.11 % ID/g
Drug uptake (Hippocampus [43]): 0.29 % ID/g
Drug uptake (Cerebellum [44]): 0.26 % ID/g
tissue uptake at 0.25 h [45]: 0.17 %ID/g
Drug uptake (Cerebellum [46]): 0.13 % ID/g
tissue uptake at 0.25 h [47]: 0.22 %ID/g
tissue uptake at 0.25 h [48]: 0.27 %ID/g
Drug uptake (Hippocampus [49]): 0.24 % ID/g
Drug uptake (Rattus norvegicus [50]): 0.14 % ID/g
Drug uptake (Rattus norvegicus [51]): 0.16 % ID/g

Source: ChEMBL document CHEMBL2057083, “Development of new carbon-11 labelled radiotracers for imaging GABAA- and GABAB-benzodiazepine receptors” (Bioorg Med Chem, 2012)
